Measurements: ChEMBL document CHEMBL4602659, “β,β-Dimethylacrylshikonin Induces Apoptosis in Melanoma Cell Lines by NOXA Upregulation” (J Nat Prod, 2020)
Calls of active or inactive are those of the source. The calls are words filed in the database; no cut-off is given here.

Experiments:
MUGMel1 [1] = experiment: Induction of apoptosis in human MUGMel1 cells assessed as viable cells at IC50 concentration after 24 hrs by Annexin V/SYTOX Green based flow cytometric analysis (reference value: 95.13%); assay type: functional
SBcl2 [2] = experiment: Induction of apoptosis in human SBcl2 cells assessed as effect on BAX mRNA expression at IC50 concentration after 6 to 24 hrs by RT-qPCR analysis; assay type: functional, cell-based
SBcl2 [3] = experiment: Induction of apoptosis in human SBcl2 cells assessed as early apoptotic cells at IC50 concentration after 6 hrs by Annexin V/SYTOX Green based flow cytometric analysis (reference value: 4.26%); assay type: functional
MUGMel1 [4] = experiment: Induction of apoptosis in human MUGMel1 cells assessed as effect on BAD mRNA expression at IC50 concentration after 6 to 24 hrs by RT-qPCR analysis; assay type: functional, cell-based
MUGMel1 [5] = experiment: Induction of cell cycle arrest in human MUGMel1 cells assessed as increase in S phase at IC50 concentration after 24 to 48 hrs by propidium iodide staining based flow cytometric analysis; assay type: functional
MUGMel1 [6] = experiment: Induction of apoptosis in human MUGMel1 cells assessed as increase in caspase -3 activity at IC50 concentration after 24 hrs by Alexa Fluor 647 antibody based flow cytometric analysis; assay type: functional, cell-based
MUGMel1 [7] = experiment: Cytotoxicity against human MUGMel1 cells assessed as reduction in cell viability after 24 hrs by EZ4U reagent based spectrophotometric method; assay type: functional; details: MUGMel1, 24 h
MUGMel2 [8] = experiment: Cytotoxicity against human MUGMel2 cells harboring NRAS pQ61K mutant assessed as reduction in cell viability after 24 hrs by EZ4U reagent based spectrophotometric method; assay type: functional; details: MUGMel2, 24 h
B16-F0 [9] = experiment: Cytotoxicity against mouse B16F0 cells assessed as reduction in cell viability after 24 hrs by MTT assay; assay type: functional, cell-based; details: B16F0, 24 h
SBcl2 [10] = experiment: Induction of apoptosis in human SBcl2 cells assessed as necrotic cells at IC50 concentration after 24 hrs by Annexin V/SYTOX Green based flow cytometric analysis (reference value: 0.21%); assay type: functional
WM793 [11] = experiment: Induction of apoptosis in human WM793 cells assessed as effect on PUMA protein expression at IC50 concentration after 24 hrs by Western blot analysis; assay type: functional, cell-based
WM164 [12] = experiment: Cytotoxicity against human WM164 cells harboring BRAF V600E mutant assessed as reduction in cell viability after 48 hrs by EZ4U reagent based spectrophotometric method; assay type: functional; details: WM164, 48 h
MUGMel2 [13] = experiment: Induction of apoptosis in human MUGMel2 cells assessed as late apoptotic cells at IC50 concentration after 24 hrs by Annexin V/SYTOX Green based flow cytometric analysis (reference value: 9.64%); assay type: functional
MUGMel2 [14] = experiment: Induction of apoptosis in human MUGMel2 cells assessed as late apoptotic cells at IC50 concentration after 6 hrs by Annexin V/SYTOX Green based flow cytometric analysis (reference value: 5.69%); assay type: functional
SBcl2 [15] = experiment: Antitumour activity against human SBcl2 cells xenografted in NU(NCr)-Foxn1 mouse assessed as increase in fibrosis at 2 ug/g administered for three consecutive days with 1 day interval for four cycle by hematoxylin and eosin staining based microscopic analysis; assay type: functional, cell-based
WM164 [16] = experiment: Induction of apoptosis in human WM164 cells treated with scrambled si-RNA assessed as caspase -activity at IC50 concentration after 24 hrs by Western blot analysis; assay type: functional, cell-based
WM164 [17] = experiment: Induction of apoptosis in human WM164 cells assessed as effect on BAX protein expression at IC50 concentration after 24 hrs by Western blot analysis; assay type: functional, cell-based
WM164 [18] = experiment: Induction of apoptosis in human WM164 cells assessed as early apoptotic cells at IC50 concentration after 24 hrs by Annexin V/SYTOX Green based flow cytometric analysis (reference value: 2.72%); assay type: functional
MRC5 [19] = experiment: Cytotoxicity against human MRC5 cells assessed as reduction in cell viability after 48 hrs by EZ4U reagent based spectrophotometric method; assay type: functional
SBcl2 [20] = experiment: Induction of apoptosis in human SBcl2 cells assessed as effect on BAD mRNA expression at IC50 concentration after 6 to 24 hrs by RT-qPCR analysis; assay type: functional, cell-based
MUGMel2 [21] = experiment: Induction of apoptosis in human MUGMel2 cells assessed as effect on BAD protein expression at IC50 concentration after 24 hrs by Western blot analysis; assay type: functional, cell-based
MUGMel2 [22] = experiment: Induction of apoptosis in human MUGMel2 cells assessed as up regulation of NOXA at IC50 concentration after 6 to 24 hrs by RT-qPCR analysis relative to control; assay type: functional
WM164 [23] = experiment: Induction of apoptosis in human WM164 cells assessed as late apoptotic cells at IC50 concentration after 24 hrs by Annexin V/SYTOX Green based flow cytometric analysis (reference value: 1.81%); assay type: functional
SBcl2 [24] = experiment: Cytotoxicity against human SBcl2 cells harboring NRAS Q61I mutant assessed as reduction in cell viability after 72 hrs by EZ4U reagent based spectrophotometric method; assay type: functional; details: SBcl2, 72 h
MRC5 [25] = experiment: Cytotoxicity against human MRC5 cells assessed as reduction in cell viability after 24 hrs by EZ4U reagent based spectrophotometric method; assay type: functional; details: MRC5, 24 h
WM793 [26] = experiment: Induction of apoptosis in human WM793 cells assessed as up regulation of NOXA protein expression at IC50 concentration after 24 hrs by Western blot analysis; assay type: functional, cell-based
MUGMel2 [27] = experiment: Induction of apoptosis in human MUGMel2 cells assessed as viable cells at IC50 concentration after 6 hrs by Annexin V/SYTOX Green based flow cytometric analysis (reference value: 91.12%); assay type: functional
WM164 [28] = experiment: Antitumour activity against human WM164 cells xenografted in NU(NCr)-Foxn1 mouse assessed as increase in fibrosis at 1 to 4 ug/g administered for three consecutive days with 1 day interval for four cycle by hematoxylin and eosin staining based microscopic analysis; assay type: functional, cell-based
SBcl2 [29] = experiment: Induction of apoptosis in human SBcl2 cells assessed as late apoptotic cells at IC50 concentration after 6 hrs by Annexin V/SYTOX Green based flow cytometric analysis (reference value: 14.91%); assay type: functional
MUGMel1 [30] = experiment: Induction of apoptosis in human MUGMel1 cells assessed as up regulation of PUMA at IC50 concentration after 6 to 24 hrs by RT-qPCR analysis; assay type: functional, cell-based
WM793 [31] = experiment: Induction of apoptosis in human WM793 cells assessed as effect on BAD mRNA expression at IC50 concentration after 6 to 24 hrs by RT-qPCR analysis; assay type: functional, cell-based
MUGMel1 [32] = experiment: Induction of apoptosis in human MUGMel1 cells assessed as early apoptotic cells at IC50 concentration after 6 hrs by Annexin V/SYTOX Green based flow cytometric analysis (reference value: 2.55%); assay type: functional
WM793 [33] = experiment: Induction of apoptosis in human WM793 cells assessed as early apoptotic cells at IC50 concentration after 6 hrs by Annexin V/SYTOX Green based flow cytometric analysis (reference value: 2.77%); assay type: functional
B16-F0 [34] = experiment: Cytotoxicity against mouse B16F0 cells assessed as reduction in cell viability after 48 hrs by MTT assay; assay type: functional, cell-based; details: B16F0, 48 h
[35] = Toxicity in NU(NCr)-Foxn1 mouse xenografted with SBcl2 assessed as weight loss at 2 ug/g administered for three consecutive days with 1 day interval for four cycle; details: in vivo

Compound: CC(C)=CC[C@@H](OC(=O)C=C(C)C)C1=CC(=O)c2c(O)ccc(O)c2C1=O [DIMETHYLACRYLSHIKONIN]
- Activity (MUGMel1 [1]): 49.48%
- Activity (SBcl2 [2]): inactive
- Activity (SBcl2 [3]): 8.44%
- Activity (MUGMel1 [4]): inactive
- Activity (MUGMel1 [5]): Active
- Activity (MUGMel1 [6]): Active
- IC50 (MUGMel1 [7]): 1900 nM
- IC50 (MUGMel2 [8]): 5.1 µM
- IC50 (B16-F0 [9]): 1.2 to 5.1 µM
- Activity (SBcl2 [10]): 0%
- Activity (WM793 [11]): inactive
- IC50 (WM164 [12]): 3000 nM
- Activity (MUGMel2 [13]): 43.89%
- Activity (MUGMel2 [14]): 13.53%
- Activity (SBcl2 [15]): Active
- Activity (WM164 [16]): inactive
- Activity (WM164 [17]): inactive
- Activity (WM164 [18]): 12.85%
- IC50 (MRC5 [19]): Not Active
- Activity (SBcl2 [20]): inactive
- Activity (MUGMel2 [21]): inactive
- fold change (FC) (MUGMel2 [22]): 6
- Activity (WM164 [23]): 11.6%
- IC50 (SBcl2 [24]): 1200 nM
- IC50 (MRC5 [25]): 9.5 µM
- Activity (WM793 [26]): inactive
- Activity (MUGMel2 [27]): 75.52%
- Activity (WM164 [28]): Active
- Activity (SBcl2 [29]): 70.21%
- Activity (MUGMel1 [30]): Active
- Activity (WM793 [31]): inactive
- Activity (MUGMel1 [32]): 3.51%
- Activity (WM793 [33]): 8.45%
- IC50 (B16-F0 [34]): 1.2 to 5.1 µM
- Activity [35]: Non-Toxic
